US11059833B2, “BCKDK inhibitors” (Pfizer Inc., priority 2019, dated 2021)
Read-outs that look alike come from different tables or passages of the source.

Key:
[1] = target: T1, human BCKDK (Homo sapiens, UniProt O14874); experiment: In Vitro FRET (TR-FRET) BCKDK activity assay, phosphorylation of BCKDHE1α-E2 fusion substrate; format: biochemical
T1 construct: human BCKDK (residues 31-412 of the protein pre-processing); 6xHis (N, cleaved yes); MBP (N, cleaved yes); TEV protease site (ENLYFQG) (N, cleaved yes); made in house; host or cells: BL21(DE3) E. coli, co-expressed with GroEL-GroES
Procedure: For lipoylation, fusion substrate was incubated with LpIA at a 10:1 (substrate:LplA) ratio in 20 mM sodium phosphate pH 7.4, 6 mM MgCl2, 4 mM ATP, 2 mM DTT, 3 mM DL-6,8-thioctic acid at 37° C.
BCKDK activity was monitored by phosphorylation of a HIS-tagged fusion BCKDHE1α-E2 substrate protein as described above and was detected using a time resolved-fluorescence resonance energy transfer (TR-FRET) assay system. Compounds were spotted into a 384 well plate, and purified human BCKDK protein was added to the plated compound. […] The reaction was terminated with EDTA. […] Signal intensity was proportional to the level of BCKDK-mediated substrate phosphorylation. Reactions were normalized to zero percent effect with DMSO and one hundred percent effect with 600 μM Radicicol, a known BCKDK inhibitor. IC50 curves were generated using ABASE software (IDBS, Boston Mass.).

[2] = test system: phosphorylation of S293 BCKDH; experiment: Phospho BCKDHA AlphaLISA in human skeletal myocytes; format: cell-based; details: 1 h, 60 minutes, geometric mean
Procedure: Prior to conducting the assay, BCKDH antibodies (Bethyl A303-790A) were biotinylated using the ChromaLink™ One-Shot Antibody Biotinylation Kit B-9007-009K and phospho Ser293 BCKDHA antibodies (Bethyl A304-672A) were directly conjugated to AlphaLISA Acceptor Beads (custom conjugation performed by Perkin Elmer's Lance/Delfia Custom Services, Boston Mass.). Human skeletal myocytes (Gibco A11440) were plated in a 384 well plate at a density of 7500 live cells/well and grown in skeletal muscle growth media containing the media supplement and chick embryo extract (Promocell C-23060 and C-23160, MP92850145). After overnight incubation, media was removed, and BCKDK inhibitors were added in assay media (growth media diluted 10-fold in PBS). After 60 minutes, the media was removed, the cells were washed with PBS and lysed in 10 μL of buffer (Cell Signaling #9803) containing 2 nM biotinylated total BCKDH antibodies. Samples were incubated for 60 minutes, and 5 μL of AlphaLISA acceptor beads conjugated with phospho-S293 BCKDH antibodies were added 1× Alpha buffer. After a 60 minute incubation, 5 μL streptavidin donor beads (40 μg/μL) beads were added in 1× Alpha buffer while protecting from light. Fluorescence was emitted when the phospho and total BCKDH antibodies were within proximity, signifying phosphorylation of S293 BCKDH. Fluorescence was monitored on the Envision plate reader. The zero percent effect was determined from DMSO treatment and the maximal effect was assessed relative to the BCKDK inhibitor BT2. IC50 curves were generated using ActivityBase software (IDBS, Boston Mass.).

[3] = test system: Mice fed 60% high fat diet; experiment: Diabetic animal model: fasting glucose and oral glucose tolerance test; format: in vivo; details: for Area under the curve for the glucose tolerance test as percent of vehicle treated group: 1 g/kg dextrose; for fasting plasma glucose levels: high fat diet mice, mean±SEM
Procedure: Blood glucose was measured 15, 30, 60, and 120 minutes after the gavage, and the data were plotted and analyzed as area under the curve using GraphPad Prism 8.0 (GraphPad Software, La Jolla, Calif.). Blood was concomitantly collected in EDTA tubes at the 0, 15 and 30 minute time points, spun down at 10K RPM for 10 minutes. […] Area under the curve for the glucose tolerance test as percent of vehicle treated group was 100.0±3 (vehicle, n=29), 100±4 (20 mg/kg, n=18), 87±2 (60 mg/kg, n=30), 78±2 (180 mg/kg, n=16).

[4] = test system: Dahl salt sensitive male rats; experiment: Heart failure rat model (high salt diet); format: in vivo; details: 100 mg/kg PO once daily
Procedure: Dahl salt sensitive male rats (Charles River strain SS/JrHsdMcwiCrl) were fed control diet or 6% high salt diet (iD03121701-AIN-76a rodent diet with added 6% NaCl) for 21 weeks in total. At week 5, the high salt diet-fed rats were dosed PO with 100 mg/kg BT2 or vehicle once daily for the last 16 weeks of study. Echocardiography was performed at week 18 (myocardial performance index (MPI): control diet 0.567±0.034, high salt+vehicle 0.810±0.039, high salt+BT2 0.660±0.030; Isovolumic relaxation time (IVRT): control diet 23.154±0.60 ms, high salt+vehicle 36.507±2.20 ms, high salt+BT2 31.605±1.78 ms; Intraventricular septal thickness at diastole (IVDd): control 2.03±0.088 mm, high salt+vehicle 2.877±0.110 mm, high salt+BT2 2.489±0.089 mm). NT-pro-BNP (MSD K153JKD; control […], high salt+vehicle 1003.0±200.8 μg/mL, high salt+BT2 503.4±84.96 μg/mL), and proANP (MSD K153MBD; control 33.50±5.4 ng/mL, high salt 65.19±8.3 ng/mL, high salt+BT2 38.81±7.0 ng/mL) levels were measured in plasma using MSD assays at the terminal time point. Heart weights were measured at euthanasia and normalized to tibia length (heart/tibia control 0.033±0.001 g/mm; high salt+vehicle 0.042±0.001 g/mm, high salt+BT2 0.038±0.001 g/mm).

[5] = purified human BCKDK, 15 μM ATP, geometric mean, read-out: In Vitro FRET IC50

Row | Compound | IC50 [1, 5] | IC50 [2] | also measured
1 | O=C(O)c1sc2cc(Cl)sc2c1C(F)F [Example 11, 5-chloro-3-(difluoromethyl)thieno[3,2-b]thiophene-2-carboxylic acid] | 0.37 µM | 2.2 µM | –
2 | O=C(O)c1sc2cc(Cl)sc2c1Br [Example 15, ammonium 3-bromo-5-chlorothieno[3,2-b]thiophene-2-carboxylate] | 0.84 µM | 2.8 µM | –
3 | O=C(O)c1sc2c(F)c(Cl)sc2c1F [Example 13, 5-chloro-3,6-difluorothieno[3,2-b]thiophene-2-carboxylic acid] | 0.47 µM | 1.9 µM | –
4 | O=C(O)c1sc2cc(F)sc2c1Br [Example 2, 3-Bromo-5-fluorothieno[3,2-b]thiophene-2-carboxylic acid] | 0.12 µM | 1.5 µM | –
5 | O=C(O)c1cc2sc(F)c(F)c2s1 [Example 4, 5,6-Difluorothieno[3,2-b]thiophene-2-carboxylic acid] | 0.058 µM | 0.39 µM | –
6 | CCc1c(C(=O)O)sc2cc(Cl)sc12 [Example 16, 5-chloro-3-ethylthieno[3,2-b]thiophene-2-carboxylic acid] | 0.88 µM | 3.6 µM | –
7 | O=C(O)c1sc2cc(Cl)ccc2c1Cl [BT2, 3,6-dichloro-1-benzothiophene-2-carboxylic acid] | – | 4.5 µM | heart weight normalized to tibia length (heart/tibia) ([4]; at euthanasia (high salt+vehicle 0.042±0.001, control 0.033±0.001)): 0.038±0.001 g/mm; myocardial performance index (MPI) ([4]; echocardiography at week 18 (high salt+vehicle 0.810±0.039, control diet 0.567±0.034)): 0.660±0.030; Intraventricular septal thickness at diastole (IVDd) ([4]; echocardiography at week 18 (high salt+vehicle 2.877±0.110, control 2.03±0.088)): 2.489±0.089 mm; Isovolumic relaxation time (IVRT) ([4]; echocardiography at week 18 (high salt+vehicle 36.507±2.20, control diet 23.154±0.60)): 31.605 ± 1.78 ms; proANP level in plasma ([4]; terminal time point (high salt 65.19±8.3, control 33.50±5.4)): 38.81 ± 7.0 ng/mL; NT-pro-BNP level in plasma ([4]; terminal time point (high salt+vehicle 1003.0±200.8, control 294.9±26.04)): 503.4 ± 84.96 µg/mL; IC50 [1]: 1.3 µM
8 | O=C(O)c1sc2c(F)c(F)sc2c1Cl [Example 8, 3-chloro-5,6-difluorothieno[3,2-b]thiophene-2-carboxylic acid] | 0.26 µM | 1.8 µM | –
9 | O=C(O)c1sc2cc(F)ccc2c1Cl [BT2F, 3-chloro-6-fluoro-1-benzothiophene-2-carboxylic acid, reference compound] | 0.81 µM | – | –

Now from value to molecule, other results behind:

Row | IC50 [1, 5] | IC50 [2] | Compound | also measured
10 | 0.8 µM | – | Cc1c(C(=O)O)sc2cc(Cl)sc12 [Example 14, 5-chloro-3-methylthieno[3,2-b]thiophene-2-carboxylic acid] | –
11 | 0.23 µM | 4.2 µM | Cc1c(F)sc2cc(C(=O)O)sc12 [Example 6, 5-fluoro-6-methylthieno[3,2-b]thiophene-2-carboxylic acid] | –
12 | 0.33 µM | 3.4 µM | O=C(O)c1cc2sc(F)c(Cl)c2s1 [Example 10, 6-chloro-5-fluorothieno[3,2-b]thiophene-2-carboxylic acid] | –
13 | 0.28 µM | 1.6 µM | Cc1c(C(=O)O)sc2cc(F)sc12 [Example 9, 5-fluoro-3-methylthieno[3,2-b]thiophene-2-carboxylic acid] | –
14 | 0.065 µM | 1.8 µM | O=C(O)c1sc2cc(F)sc2c1C(F)F [Example 3, 3-(Difluoromethyl)-5-fluorothieno[3,2-b]thiophene-2-carboxylic acid] | –
15 | 0.26 µM | 1.1 µM | O=C(O)c1sc2cc(Cl)sc2c1F [Example 7, 5-chloro-3-fluorothieno[3,2-b]thiophene-2-carboxylic acid] | –
16 | – | 0.72 µM | O=C(O)c1sc2cc(F)sc2c1Cl [Example 1, 3-Chloro-5-fluorothieno[3,2-b]thiophene-2-carboxylic acid] | Area under the curve for the glucose tolerance test as percent of vehicle treated group ([3]; 20 mg/kg PO, n=18 (vehicle 100.0±3)): 100±4% of vehicle treated group; fasting plasma glucose levels ([3]; 20 mg/kg PO, n=18 (vehicle 237±5)): 230 ± 8 mg/dL; Area under the curve for the glucose tolerance test as percent of vehicle treated group ([3]; 60 mg/kg PO, n=30 (vehicle 100.0±3)): 87±2% of vehicle treated group; fasting plasma glucose levels ([3]; 60 mg/kg PO, n=40 (vehicle 237±5)): 221 ± 4 mg/dL; Area under the curve for the glucose tolerance test as percent of vehicle treated group ([3]; 180 mg/kg PO, n=16 (vehicle 100.0±3)): 78±2% of vehicle treated group; fasting plasma glucose levels ([3]; 180 mg/kg PO, n=19 (vehicle 237±5)): 206 ± 5 mg/dL
17 | 0.14 µM | 0.41 µM | O=C(O)c1sc2cc(F)sc2c1F [Example 5, 3,5-Difluorothieno[3,2-b]thiophene-2-carboxylic acid] | –
18 | 0.4 µM | 1.2 µM | O=C(O)c1cc2sc(Cl)c(F)c2s1 [Example 12, 5-chloro-6-fluorothieno[3,2-b]thiophene-2-carboxylic acid] | –
